In BigSolDB 2.1:

O=C(O)CNCc1ccccc1
solubility (mole fraction)
Details	283.15 K	288.15 K	293.15 K	298.15 K	303.15 K	313.15 K	323.15 K
in 1,4-dioxane	3.3e-05	–	5.5e-05	–	8.4e-05	0.00015	0.000211
in acetone	7.1e-05	–	9.4e-05	–	0.000133	0.000165	0.00024
in acetonitrile	5e-06	–	1.1e-05	–	1.7e-05	2.8e-05	4e-05
in dichloromethane	9e-06	2.1e-05	3.4e-05	4.2e-05	5.7e-05	–	–
in ethanol	0.000222	–	0.000326	–	0.00043	0.000526	0.000709
in ethyl acetate	1.1e-05	–	3.3e-05	–	6.7e-05	0.000102	0.000173
in isopropanol	6e-05	–	8e-05	–	9.6e-05	0.00012	0.000173
in methanol	0.00217	–	0.00269	–	0.00335	0.00416	0.0053
in n-butanol	0.000166	–	0.000203	–	0.000262	0.000338	0.000397
in n-propanol	0.000214	–	0.000266	–	0.000306	0.00037	0.000456
in water	0.00909	–	0.0113	–	0.014	0.0169	0.0214
